Data reported in patent EP2686338B1, “FUNCTIONALIZED BIOMATERIALS FOR TISSUE REGENERATION” (Nanomed3d S.r.l., priority 2011, dated 2018).
“Also recorded” adds a separate entry of the source. Residues, ends and D or L forms follow the SMILES beside them.

What was measured:
[1] = Rheology (frequency, time and strain sweeps); format: physicochemical; settings: for G' pre-assembling: average storage modulus of SAPeptide solution, before PBS; for G' pre-assembling / G' post-assembling: 1-100 Hz; for G' post-assembling: average storage modulus of jellified scaffold, after PBS; for Onset point (% strain): strain percentage at rupture, strain sweep at 1 Hz, 25 C
Description: Rheological properties of the self-assembling peptides of the invention were determined using a controlled stress TA Instruments AR-2000ex rheometer (TA Instruments). A cone-and-plate geometry (acrylic cone diameter, 20 mm; angle, 1°; truncation gap 34 µm) was used. Preliminary strain sweeps were performed for each sample to define the linear viscoelastic region, thus ensuring that moduli were independent of strain. Time sweeps, after addition of PBS (1x) were recorded at 25 C (angular frequency ω=1 Hz) and continued till G' plateaued. Frequency sweeps, both for peptide water solutions and for self-assembled scaffolds, were performed at 25 C with the instrument in oscillatory mode at controlled strain of 1 %. Final strain sweeps was performed at 1Hz oscillatory frequency and at 25 C: onset point of failure was calculated by linear interpolation and subsequent determination of the intersection of the G' modes within the linear region and at material failure respectively.

murine NSCs [2] = assay: Imaging and cell proliferation (MTS) assay on assembled scaffolds, murine NSCs; format: cell-based
Description: (§1) In vitro tests were performed as previously described (8), in order to assess whether the biomaterials (assembled hydrogels) obtained with the SAPs of the present invention influenced NSCs adhesion, survival and/or differentiation. SAPeptides (30 µl for each well at a concentration of 10 mg/ml) were assembled into 96 multiwells two hours before cell. Cells (at a concentration of 2x10^4 cells/cm^2) were seeded on the top-surface of each assembled scaffold. Initially, cells were cultured with basal medium supplemented with βFGF (10 ng/ml), added to enhance neuronal progeny differentiation. At 3 days in vitro (DIV), βFGF medium was replaced with Leukemia Inhibitory Factor (LIF, Chemicon) (20 ng/ml) and Brain Derived Neurotrophic Factor (BDNF, Peprotech) (20 ng/ml). Fresh medium was added every three days. For both viability and differentiation assays positive and negative controls consisted of Cultrex-BME® substrate (R&D systems) (1:100 dilution in basal medium) and untreated bottom well surfaces respectively. Cell viability was quantified via CellTiter 96® Aqueous Proliferation Assay (Promega) at 7 DIV as recommended in the Promega protocol. After calibrating the linear response between the cell number and absorbance values, proliferated cell populations were quantified (n=5) by using a Vmax microplate reader (Molecular Devices) at 490nm wavelength. Values, reported as means ± standard error of the mean, were blanked to their respective controls consisting of same substrates and cell culture media without cells.

human NSCs = assay: Imaging and cell proliferation (MTS) assay on assembled scaffolds, human NSCs; format: cell-based; settings: 7 DIV; scaffolds 10 mg/ml; vs control, P<0.03, n=5
Description: as §1

murine NSCs [3] = assay: Immunofluorescence of differentiated NSC progeny on scaffolds, murine NSCs; format: cell-based; settings: for percentages of neurons (βIIITubulin positive cells): scaffolds of stiffness 100, 500 and 1000 Pa, best values, softer scaffolds; for differentiated neurons (βIIITubulin positive cells) versus scaffold stiffness: stiffness 100, 500 and 1000 Pa, P<0.05, P<0.01
Description: as §1
Immunofluorescence tests were performed for assaying the phenotypes of the differentiated human and murine NSC progenies. In the case of KLP and Ac-KLP just murine NSC have been used. Ac-KLP and KLP scaffolds were prepared at different concentrations in order to display three different stiffness values (viz. 100, 500 and 1000 Pa). This was done to assess the influence of scaffold concentration (and consequently its stiffness) over NSC differentiation. All the other peptides were tested at 1% v/w concentration instead. The following antibodies were used: rabbit polyclonal against GFAP (1:500, DakoCytomation) for astrocytes, mouse monoclonal against βIII-Tubulin (1:500, Covance) for neurons, mouse monoclonal against GalC (1:200, Chemicon) and O4 (1:200, Chemicon) for oligodendrocyes. Secondary Abs were Goat anti Mouse Alexa 488 (1:1000, Molecular Probes), Goat anti Mouse Cy3 (1:1000, Jackson Immunoresearch), Goat anti Rabbit Cy3 (1:1000, Jackson Immunoresearch). Cell nuclei were counterstained with DAPI (Molecular Probes). Quantitative analyses were performed by counting 100-300 cells for each of 9 randomly chosen fields over a total of 3 independent experiments. Phase contrast and fluorescence images of the adhering cells were acquired via Zeiss microscopes Axioplan 2 and ApoTome System at one week after seeding.

SMILES | G' pre-assembling ([1]; 1% w/v) [Pa] | G' post-assembling ([1]; 1% w/v) [Pa] | Onset point (% strain) [1] [%] | cell viability (MTS, cell population) (murine NSCs [2]; 7 DIV, scaffolds 10 mg/ml, vs control, P<0.005, n=5) | cell viability (MTS, cell population) (human NSCs) | G' and G" values at different concentrations ([1]; 1% w/v, 2% w/v and 3% w/v) | percentages of neurons (βIIITubulin positive cells) (murine NSCs [3]) | differentiated neurons (βIIITubulin positive cells) versus scaffold stiffness (murine NSCs [3]) | cell morphology, adhesion and spreading (murine NSCs [2]; 7 DIV on assembled hydrogels)
CC(C)C[C@H](NC(=O)CNC(=O)CNC(=O)CNC(=O)[C@H](Cc1c[nH]cn1)NC(=O)[C@H](CC(=O)O)NC(=O)[C@H](CCCNC(=N)N)NC(=O)[C@@H]1CCCN1C(=O)[C@H](CC(C)C)NC(=O)[C@H](Cc1c[nH]cn1)NC(=O)[C@@H](N)CCC(N)=O)C(=O)N[C@@H](CC(=O)O)C(=O)N[C@@H](CC(C)C)C(=O)N[C@@H](CCCCN)C(=O)N[C@@H](CC(C)C)C(=O)N[C@@H](CC(=O)O)C(=O)N[C@@H](CC(C)C)C(=O)N[C@@H](CCCCN)C(=O)N[C@@H](CC(C)C)C(=O)N[C@@H](CC(=O)O)C(=O)N[C@@H](CC(C)C)C(=O)N[C@@H](CCCCN)C(N)=O [QHL, NH2-QHLPRDH-GGG-LDLKLDLKLDLK-CONH2] (H-QHLPRDHGGGLDLKLDLKLDLK-NH2) | 4.53 | 296.9 | 28.58 | significantly fostered cell viability; also recorded: significantly favored | significantly fostered cell viability; also recorded: significantly favored |  |  |  | 
CC(=O)N[C@@H](CCCCN)C(=O)N[C@@H](CC(C)C)C(=O)N1CCC[C@H]1C(=O)NCC(=O)N[C@@H](Cc1c[nH]c2ccccc12)C(=O)N[C@@H](CO)C(=O)NCC(=O)NCC(=O)NCC(=O)NCC(=O)N[C@@H](CC(C)C)C(=O)N[C@@H](CC(=O)O)C(=O)N[C@@H](CC(C)C)C(=O)N[C@@H](CCCCN)C(=O)N[C@@H](CC(C)C)C(=O)N[C@@H](CC(=O)O)C(=O)N[C@@H](CC(C)C)C(=O)N[C@@H](CCCCN)C(=O)N[C@@H](CC(C)C)C(=O)N[C@@H](CC(=O)O)C(=O)N[C@@H](CC(C)C)C(=O)N[C@@H](CCCCN)C(N)=O [Ac-KLP, Ac-KLPGWSG-GGG-LDLKLDLKLDLK-CONH2] (Ac-KLPGWSGGGGLDLKLDLKLDLK-NH2) | 2.88 | 91.2 | 47.82 |  |  | increased with concentration increments | above 50% | significant increments of differentiated neurons | 
CC(=O)N[C@@H](CCC(N)=O)C(=O)N[C@@H](Cc1c[nH]cn1)C(=O)N[C@@H](CC(C)C)C(=O)N1CCC[C@H]1C(=O)N[C@@H](CCCNC(=N)N)C(=O)N[C@@H](CC(=O)O)C(=O)N[C@@H](Cc1c[nH]cn1)C(=O)NCC(=O)NCC(=O)NCC(=O)N[C@@H](CC(C)C)C(=O)N[C@@H](CC(=O)O)C(=O)N[C@@H](CC(C)C)C(=O)N[C@@H](CCCCN)C(=O)N[C@@H](CC(C)C)C(=O)N[C@@H](CC(=O)O)C(=O)N[C@@H](CC(C)C)C(=O)N[C@@H](CCCCN)C(=O)N[C@@H](CC(C)C)C(=O)N[C@@H](CC(=O)O)C(=O)N[C@@H](CC(C)C)C(=O)N[C@@H](CCCCN)C(N)=O [Ac-QHL, Ac-QHLPRDH-GGG-LDLKLDLKLDLK-CONH2] (Ac-QHLPRDHGGGLDLKLDLKLDLK-NH2) | 2.68 | 166.7 | 10.16 |  |  |  |  |  | 
CC(C)C[C@H](NC(=O)CNC(=O)CNC(=O)CNC(=O)CNC(=O)[C@H](CO)NC(=O)[C@H](Cc1c[nH]c2ccccc12)NC(=O)CNC(=O)[C@@H]1CCCN1C(=O)[C@H](CC(C)C)NC(=O)[C@@H](N)CCCCN)C(=O)N[C@@H](CC(=O)O)C(=O)N[C@@H](CC(C)C)C(=O)N[C@@H](CCCCN)C(=O)N[C@@H](CC(C)C)C(=O)N[C@@H](CC(=O)O)C(=O)N[C@@H](CC(C)C)C(=O)N[C@@H](CCCCN)C(=O)N[C@@H](CC(C)C)C(=O)N[C@@H](CC(=O)O)C(=O)N[C@@H](CC(C)C)C(=O)N[C@@H](CCCCN)C(N)=O [KLP, NH2-KLPGWSG-GGG-LDLKLDLKLDLK-CONH2] (H-KLPGWSGGGGLDLKLDLKLDLK-NH2) | 3.30 | 51.38 | 56.46 |  |  |  | above 50% | significant increments of differentiated neurons | fostered NSCs adhesion and spreading similarly to FAQ
CC(C)C[C@H](NC(=O)CNC(=O)CNC(=O)CNC(=O)[C@H](CC(=O)O)NC(=O)[C@H](CC(N)=O)NC(=O)[C@@H](NC(=O)[C@H](CO)NC(=O)[C@H](CC(C)C)NC(=O)[C@H](CO)NC(=O)[C@@H](N)CO)C(C)C)C(=O)N[C@@H](CC(=O)O)C(=O)N[C@@H](CC(C)C)C(=O)N[C@@H](CCCCN)C(=O)N[C@@H](CC(C)C)C(=O)N[C@@H](CC(=O)O)C(=O)N[C@@H](CC(C)C)C(=O)N[C@@H](CCCCN)C(=O)N[C@@H](CC(C)C)C(=O)N[C@@H](CC(=O)O)C(=O)N[C@@H](CC(C)C)C(=O)N[C@@H](CCCCN)C(N)=O [SSL, NH2-SSLSVND-GGG-LDLKLDLKLDLK-CONH2] (H-SSLSVNDGGGLDLKLDLKLDLK-NH2) | 9.01 | 124.7 | 17.78 |  |  |  |  |  | 
CC(=O)N[C@@H](CO)C(=O)N[C@@H](CO)C(=O)N[C@@H](CC(C)C)C(=O)N[C@@H](CO)C(=O)N[C@H](C(=O)N[C@@H](CC(N)=O)C(=O)N[C@@H](CC(=O)O)C(=O)NCC(=O)NCC(=O)NCC(=O)N[C@@H](CC(C)C)C(=O)N[C@@H](CC(=O)O)C(=O)N[C@@H](CC(C)C)C(=O)N[C@@H](CCCCN)C(=O)N[C@@H](CC(C)C)C(=O)N[C@@H](CC(=O)O)C(=O)N[C@@H](CC(C)C)C(=O)N[C@@H](CCCCN)C(=O)N[C@@H](CC(C)C)C(=O)N[C@@H](CC(=O)O)C(=O)N[C@@H](CC(C)C)C(=O)N[C@@H](CCCCN)C(N)=O)C(C)C [Ac-SSL, Ac-SSLSVND-GGG-LDLKLDLKLDLK-CONH2] (Ac-SSLSVNDGGGLDLKLDLKLDLK-NH2) | 6.72 | 267.3 | 26.12 |  |  |  |  |  | 
